Reference: patent US20230365559A1, “NOVEL AMINOPYRIDINES AND THEIR USE IN TREATING CANCER” (priority 2020, published 2023)
“And” between values parts separate entries of the source, which are not always exact repeats. Identical values can stand only once. Like-named read-outs stand apart in the source and are kept apart here.

Key:
human mTOR = human mTOR (Homo sapiens, UniProt P42345); experiment: Inhibition of mTOR kinase activity, HotSpot assay, phosphorylation of 4EPB1
UT-SCC-54C cells [1] = experiment: Radiosensitisation of UT-SCC-54C HNSCC cells, clonogenic survival, oxic and anoxic (Table 18); type: cell-based, human; conditions: for Plating efficiency drug/no drug: no radiation; for SER (sensitiser enhancement ratio): UT-SCC-54C, anoxic conditions, FIG. 10; for SER (sensitiser enhancement ratio) / radiosensitisation of UT-SCC-54C cells under oxic conditions: clonogenic survival; for radiosensitisation of UT-SCC-54C cells under oxic conditions: FIG. 9
Ser2056 of DNA-PKcs = Ser2056 of DNA-PKcs (Homo sapiens, UniProt P78527); experiment: Inhibition of cellular autophosphorylation at Ser2056 of DNA-PKcs in UT-SCC-54C cells, western immunoblotting; type: cell-based
UT-SCC-54C cells [2] = experiment: Radiosensitisation of UT-SCC-54C HNSCC cells, regrowth (sulforhodamine B) assay, oxic (Table 16); type: cell-based, human; conditions: for IC50: Homo sapiens, read-out: IC50; for S50: compound in combination with 3 Gy of radiation, 50% inhibition of regrowth fraction, UT-SCC-54C; for S50 / radiosensitisation / differential growth inhibition of UT-SCC-54C cells: oxic; for radiosensitisation / differential growth inhibition of UT-SCC-54C cells: 0 or 3 Gy, regrowth assay
HAP1/PRKDC−/− cells = experiment: Radiosensitisation of DNA-PK null HAP1/PRKDC−/− cells, regrowth assay; type: cell-based, human; conditions: for radiosensitisation / differential growth inhibition of DNA-PK null HAP1 line: 3 Gy, HAP1/PRKDC−/−; for IC50: Homo sapiens, HAP1
ATR/ATRIP = ATR/ATRIP (Homo sapiens, UniProt Q13535); experiment: ATR/ATRIP Human PIKK Kinase Enzymatic Radiometric Assay, KinaseProfiler (Eurofins Discovery); type: biochemical; conditions: Km ATP, Table 15, read-out: Inhibition of PIKK kinase activity ATR
human DNA-PK = human DNA-PK (Homo sapiens, UniProt P78527); experiment: Inhibition of DNA-PKcs kinase activity, HotSpot assay (Reaction Biology), [γ-33P]-ATP phosphorylation of peptide substrate; type: biochemical
human PI3Kα (p110α/p85α) = human PI3Kα (p110α/p85α) (Homo sapiens, UniProt P42336); experiment: Inhibition of PI3Kα kinase activity, ADP-Glo Assay (Reaction Biology); type: biochemical; conditions: 10 μM ATP; mean of two replicates; Table 12; read-out: Inhibition of kinase activity (as IC50) PICK
[3] = biological target: T1, Ser1981 of ataxia-telangiectasia mutated (ATM) (Homo sapiens, UniProt Q13315); experiment: Inhibition of phosphorylation of Ser1981 of ATM in UT-SCC-54C cells, western immunoblotting; type: cell-based; conditions: oxia, 10 Gy, FIG. 7 (10 μM)
T1 construct: Ser1981 of ataxia-telangiectasia mutated (ATM) in UT-SCC-54C cells

ATM = ATM (Homo sapiens, UniProt Q13315); experiment: ATM Human PIKK Kinase Enzymatic ELISA/EIA Assay, KinaseProfiler (Eurofins Discovery); type: biochemical; conditions: KinaseProfiler, Km ATP; Table 15; read-out: Inhibition of PIKK kinase activity ATM
HAP1 cells = experiment: Radiosensitisation of HAP1 wild type cells, regrowth assay; type: cell-based, human; conditions: for radiosensitisation / differential growth inhibition of HAP1 cells: 3 Gy cobalt-60 gamma irradiation relative to radiation-only; for IC50: Homo sapiens, HAP1, read-out: HAP1 wt IC50
UT-SCC-54C cells [4] = experiment: Hypoxia-selective metabolism of prodrugs by UT-SCC-54C cells, LC-MS; conditions: 10 μM, 0-3 h
[5] = tested on: UT-SCC-54C tumour xenografts; experiment: Radiosensitisation of UT-SCC-54C HNSCC tumours, ex vivo clonogenic assay of tumour xenografts; type: in vivo, female NIH-III mice
[6] = Inhibition of PIKK kinase activity mTOR/FRAP (nM), HotSpot assay Reaction Biology Corp., Table 15
[7] = Inhibition of kinase activity (as IC50) mTOR (nM), 10 μM ATP, mean of two replicates, Table 12
[8] = 10 μM ATP, 10 μg/ml DNA, mean of two replicates, Table 12, read-out: Inhibition of kinase activity (as IC50) DNA-PK (converted)
[9] = HotSpot assay Reaction Biology Corp., Table 15, read-out: Inhibition of PIKK kinase activity DNA-PK

human PI3Kα (p110α/p85α), sequence (P42336 whole entry): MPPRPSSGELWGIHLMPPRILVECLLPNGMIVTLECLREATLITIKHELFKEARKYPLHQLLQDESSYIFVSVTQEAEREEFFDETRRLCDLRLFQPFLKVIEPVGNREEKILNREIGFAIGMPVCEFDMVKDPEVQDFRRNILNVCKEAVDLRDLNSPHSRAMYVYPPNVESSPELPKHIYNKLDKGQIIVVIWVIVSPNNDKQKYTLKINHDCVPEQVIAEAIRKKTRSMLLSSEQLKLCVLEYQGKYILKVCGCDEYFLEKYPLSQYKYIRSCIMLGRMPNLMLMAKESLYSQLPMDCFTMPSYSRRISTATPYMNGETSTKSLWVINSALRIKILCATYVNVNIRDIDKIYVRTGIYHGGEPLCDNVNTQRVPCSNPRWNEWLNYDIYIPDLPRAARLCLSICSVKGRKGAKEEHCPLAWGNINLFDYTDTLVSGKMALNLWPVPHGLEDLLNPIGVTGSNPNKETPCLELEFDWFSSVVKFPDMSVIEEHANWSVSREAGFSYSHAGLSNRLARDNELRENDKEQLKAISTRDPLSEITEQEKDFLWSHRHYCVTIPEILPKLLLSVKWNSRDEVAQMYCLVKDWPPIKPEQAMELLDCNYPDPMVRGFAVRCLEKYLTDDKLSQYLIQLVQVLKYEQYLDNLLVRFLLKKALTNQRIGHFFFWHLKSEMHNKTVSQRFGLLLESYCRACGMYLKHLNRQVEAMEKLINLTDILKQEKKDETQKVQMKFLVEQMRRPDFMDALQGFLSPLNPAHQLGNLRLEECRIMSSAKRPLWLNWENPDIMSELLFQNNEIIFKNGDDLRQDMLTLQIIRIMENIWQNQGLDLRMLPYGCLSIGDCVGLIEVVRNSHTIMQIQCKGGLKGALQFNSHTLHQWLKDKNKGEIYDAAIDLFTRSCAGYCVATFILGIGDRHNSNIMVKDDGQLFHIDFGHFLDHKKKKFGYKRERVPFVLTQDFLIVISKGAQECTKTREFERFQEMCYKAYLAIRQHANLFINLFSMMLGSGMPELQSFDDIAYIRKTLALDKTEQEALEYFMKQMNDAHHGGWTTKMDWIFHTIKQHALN
human PI3Kα (p110α/p85α), sequence (P27986 whole entry partner): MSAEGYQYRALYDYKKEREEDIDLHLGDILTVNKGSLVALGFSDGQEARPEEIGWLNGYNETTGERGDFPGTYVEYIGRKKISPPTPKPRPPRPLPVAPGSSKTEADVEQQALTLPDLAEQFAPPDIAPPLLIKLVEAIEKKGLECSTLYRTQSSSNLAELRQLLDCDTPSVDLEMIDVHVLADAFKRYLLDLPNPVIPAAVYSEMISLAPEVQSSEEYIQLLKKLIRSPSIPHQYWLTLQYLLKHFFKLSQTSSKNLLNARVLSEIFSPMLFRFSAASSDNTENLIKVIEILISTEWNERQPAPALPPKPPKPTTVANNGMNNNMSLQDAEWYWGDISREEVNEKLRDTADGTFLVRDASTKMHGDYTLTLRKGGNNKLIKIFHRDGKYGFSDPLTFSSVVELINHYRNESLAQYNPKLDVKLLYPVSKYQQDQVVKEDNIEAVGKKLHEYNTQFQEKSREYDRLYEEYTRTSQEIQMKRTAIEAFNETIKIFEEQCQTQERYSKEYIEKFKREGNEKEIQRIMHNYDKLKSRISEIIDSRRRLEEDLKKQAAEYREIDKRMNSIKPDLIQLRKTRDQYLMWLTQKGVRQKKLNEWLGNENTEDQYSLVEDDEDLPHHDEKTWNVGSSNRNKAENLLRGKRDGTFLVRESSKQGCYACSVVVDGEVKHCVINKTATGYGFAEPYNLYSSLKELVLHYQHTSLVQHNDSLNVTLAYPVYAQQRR
ATM, sequence (Q13315 whole entry): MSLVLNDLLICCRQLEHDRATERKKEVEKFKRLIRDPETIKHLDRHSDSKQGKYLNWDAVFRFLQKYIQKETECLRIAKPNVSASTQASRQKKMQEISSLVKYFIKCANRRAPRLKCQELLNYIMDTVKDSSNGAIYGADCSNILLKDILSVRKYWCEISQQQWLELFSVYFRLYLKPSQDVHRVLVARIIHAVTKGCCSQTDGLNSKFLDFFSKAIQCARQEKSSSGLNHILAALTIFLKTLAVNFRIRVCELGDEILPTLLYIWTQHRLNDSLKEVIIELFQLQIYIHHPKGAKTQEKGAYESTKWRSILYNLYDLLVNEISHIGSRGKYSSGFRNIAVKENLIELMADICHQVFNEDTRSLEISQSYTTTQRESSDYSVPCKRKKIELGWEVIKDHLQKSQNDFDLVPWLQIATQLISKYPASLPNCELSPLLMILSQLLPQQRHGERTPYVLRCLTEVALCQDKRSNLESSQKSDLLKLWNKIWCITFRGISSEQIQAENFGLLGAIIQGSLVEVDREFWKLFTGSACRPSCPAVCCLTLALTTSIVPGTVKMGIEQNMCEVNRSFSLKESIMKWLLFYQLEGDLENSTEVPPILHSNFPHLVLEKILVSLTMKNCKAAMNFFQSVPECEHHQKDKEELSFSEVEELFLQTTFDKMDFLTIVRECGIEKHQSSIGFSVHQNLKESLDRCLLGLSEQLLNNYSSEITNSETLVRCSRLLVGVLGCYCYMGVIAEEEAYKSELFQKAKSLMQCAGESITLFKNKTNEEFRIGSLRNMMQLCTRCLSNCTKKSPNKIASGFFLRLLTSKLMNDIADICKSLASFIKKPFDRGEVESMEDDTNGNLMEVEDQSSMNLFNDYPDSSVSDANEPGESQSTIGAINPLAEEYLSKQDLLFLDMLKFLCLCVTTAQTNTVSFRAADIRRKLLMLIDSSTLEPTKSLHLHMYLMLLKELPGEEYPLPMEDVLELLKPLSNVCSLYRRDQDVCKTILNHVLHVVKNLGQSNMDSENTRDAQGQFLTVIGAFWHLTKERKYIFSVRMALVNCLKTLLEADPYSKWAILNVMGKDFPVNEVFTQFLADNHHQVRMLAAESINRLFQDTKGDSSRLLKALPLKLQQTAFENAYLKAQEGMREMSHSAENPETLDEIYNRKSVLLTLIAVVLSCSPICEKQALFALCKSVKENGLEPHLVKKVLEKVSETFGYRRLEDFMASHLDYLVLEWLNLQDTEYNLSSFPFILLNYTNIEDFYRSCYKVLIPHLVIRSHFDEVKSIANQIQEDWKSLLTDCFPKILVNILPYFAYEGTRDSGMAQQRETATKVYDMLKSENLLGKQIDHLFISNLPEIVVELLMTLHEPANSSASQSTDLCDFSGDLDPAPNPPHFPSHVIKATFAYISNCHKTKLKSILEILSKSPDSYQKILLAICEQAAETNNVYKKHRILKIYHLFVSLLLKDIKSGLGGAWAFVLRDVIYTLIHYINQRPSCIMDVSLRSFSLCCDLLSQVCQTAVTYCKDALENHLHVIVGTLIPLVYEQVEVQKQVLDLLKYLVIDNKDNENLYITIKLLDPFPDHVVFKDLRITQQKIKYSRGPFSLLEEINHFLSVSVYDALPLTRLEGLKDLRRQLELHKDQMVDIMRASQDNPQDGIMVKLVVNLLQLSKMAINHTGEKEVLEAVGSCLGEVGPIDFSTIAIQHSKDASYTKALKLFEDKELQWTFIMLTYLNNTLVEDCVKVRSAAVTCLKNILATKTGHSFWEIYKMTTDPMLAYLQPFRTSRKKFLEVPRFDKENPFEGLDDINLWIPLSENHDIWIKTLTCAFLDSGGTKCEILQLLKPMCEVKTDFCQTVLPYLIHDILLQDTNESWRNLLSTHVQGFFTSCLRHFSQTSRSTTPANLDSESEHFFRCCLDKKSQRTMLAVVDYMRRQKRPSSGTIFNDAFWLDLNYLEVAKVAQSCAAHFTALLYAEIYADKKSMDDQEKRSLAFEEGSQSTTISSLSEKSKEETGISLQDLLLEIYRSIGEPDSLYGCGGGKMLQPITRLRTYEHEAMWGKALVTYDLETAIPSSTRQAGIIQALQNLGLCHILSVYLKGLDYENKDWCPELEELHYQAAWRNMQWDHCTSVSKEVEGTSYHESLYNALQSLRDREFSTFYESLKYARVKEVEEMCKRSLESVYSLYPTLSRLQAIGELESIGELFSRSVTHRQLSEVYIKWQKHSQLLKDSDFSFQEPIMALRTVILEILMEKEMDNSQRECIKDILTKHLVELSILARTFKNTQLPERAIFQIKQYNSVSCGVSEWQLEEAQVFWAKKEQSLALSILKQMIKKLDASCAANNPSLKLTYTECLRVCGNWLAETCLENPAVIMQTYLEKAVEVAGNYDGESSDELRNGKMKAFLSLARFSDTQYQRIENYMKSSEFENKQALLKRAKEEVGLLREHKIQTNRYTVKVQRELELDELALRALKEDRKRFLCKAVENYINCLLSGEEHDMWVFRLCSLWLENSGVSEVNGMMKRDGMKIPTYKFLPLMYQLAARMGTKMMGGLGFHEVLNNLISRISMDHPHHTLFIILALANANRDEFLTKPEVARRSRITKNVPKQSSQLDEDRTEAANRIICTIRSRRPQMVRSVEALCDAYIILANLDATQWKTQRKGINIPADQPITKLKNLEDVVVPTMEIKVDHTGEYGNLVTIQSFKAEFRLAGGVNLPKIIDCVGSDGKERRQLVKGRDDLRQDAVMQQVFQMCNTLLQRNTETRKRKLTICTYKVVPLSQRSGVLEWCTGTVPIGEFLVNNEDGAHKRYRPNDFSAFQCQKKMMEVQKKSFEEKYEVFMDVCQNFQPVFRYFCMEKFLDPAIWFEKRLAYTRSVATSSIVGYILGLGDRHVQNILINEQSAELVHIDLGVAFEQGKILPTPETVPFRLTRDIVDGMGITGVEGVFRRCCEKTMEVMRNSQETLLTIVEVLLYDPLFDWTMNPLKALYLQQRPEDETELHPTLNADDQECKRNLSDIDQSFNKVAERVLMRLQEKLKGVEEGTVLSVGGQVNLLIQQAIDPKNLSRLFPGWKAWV
T1 sequence (Q13315 whole entry, change not shown): as the sequence (Q13315 whole entry) above

Row | SMILES | IC50 (human mTOR; [6]) [nM] | IC50 (human mTOR; [7]) [nM] | SER (sensitiser enhancement ratio) (UT-SCC-54C cells [1]) | radiosensitisation of UT-SCC-54C cells under oxic conditions (UT-SCC-54C cells [1]) | IC50 (UT-SCC-54C cells [2]) [µM] | S50 (UT-SCC-54C cells [2]) [µM] | radiosensitisation / differential growth inhibition of UT-SCC-54C cells (UT-SCC-54C cells [2]) | radiosensitisation / differential growth inhibition of DNA-PK null HAP1 line (HAP1/PRKDC−/− cells) | IC50 (HAP1/PRKDC−/− cells) [µM] | IC50 (ATR/ATRIP) [µM] | IC50 (human DNA-PK; [8]) | IC50 (human DNA-PK; [9]) [µM] | IC50 (human PI3Kα (p110α/p85α)) | IC50 (ATM) [µM] | radiosensitisation / differential growth inhibition of HAP1 cells (HAP1 cells) | IC50 (HAP1 cells) [µM] | also measured
1 | Cc1cc(OCc2cnc([N+](=O)[O-])n2C)ccc1Nc1cc2c(cn1)n(C)c(=O)n2C1CCCC1 [Compound 234, 1-Cyclopentyl-3-methyl-6-((2-methyl-4-((1-methyl-2-nitro-1H-imidazol-5-yl)methoxy)phenyl)amino)-1,3-dihydro-2H-imidazo[4,5-c]pyridin-2-one] | 30000 | 30000 | 1.37 | does not | 10.6 | 10.9 | did not display any differential growth inhibition | did not demonstrate any differential growth inhibition | 8.6 | > 100 | 0.766 µM | 0.766 | 0.877 µM | > 100 | did not demonstrate any differential growth inhibition | 9.74 | D1 (radiation dose for 1% surviving fraction) (UT-SCC-54C cells [1]; 0% O2, compound conc 10 μM): 9.72 Gy; D10 (radiation dose for 10% surviving fraction) (UT-SCC-54C cells [1]; 0% O2, compound conc 10 μM): 6.78 Gy; SER1 (sensitiser enhancement ratio at 1% surviving fraction) (UT-SCC-54C cells [1]; 0% O2, compound conc 10 μM): 1.25; SER10 (sensitiser enhancement ratio at 10% surviving fraction) (UT-SCC-54C cells [1]; 0% O2, compound conc 10 μM): 1.79; Plating efficiency drug/no drug (UT-SCC-54C cells [1]; 0% O2, compound conc 10 μM): 1.01; D1 (radiation dose for 1% surviving fraction) (UT-SCC-54C cells [1]; 20% O2, compound conc 10 μM): 7.43 Gy; D10 (radiation dose for 10% surviving fraction) (UT-SCC-54C cells [1]; 20% O2, compound conc 10 μM): 4.96 Gy; SER1 (sensitiser enhancement ratio at 1% surviving fraction) (UT-SCC-54C cells [1]; 20% O2, compound conc 10 μM): 1.16; SER10 (sensitiser enhancement ratio at 10% surviving fraction) (UT-SCC-54C cells [1]; 20% O2, compound conc 10 μM): 1.13; Plating efficiency drug/no drug (UT-SCC-54C cells [1]; 20% O2, compound conc 10 μM): 1.57; inhibition of radiation-induced Ser2056 autophosphorylation under anoxia (Ser2056 of DNA-PKcs; anoxic, FIG. 6 (20 μM)): able to inhibit phosphorylation; inhibition of Ser2056 on DNA-PKcs (Ser2056 of DNA-PKcs; oxia, 10 Gy, FIG. 7 (10 μM)): did not inhibit; inhibition of Ser2056 autophosphorylation under oxia (Ser2056 of DNA-PKcs; oxic, 10 Gy, FIG. 5 (20 μM)): little inhibition; inhibition of phosphorylation of Ser1981 on ATM [3]: did not inhibit
2 | COc1ccc(N(C(=O)OCc2cnc([N+](=O)[O-])n2C)c2cc3c(cn2)n(C)c(=O)n3C2CCOCC2)c(C)c1 [Compound 248, (1-Methyl-2-nitro-1H-imidazol-5-yl)methyl (4-methoxy-2-methylphenyl)(3-methyl-2-oxo-1-(tetrahydro-2H-pyran-4-yl)-2,3-dihydro-1H-imidazo[4,5-c]pyridin-6-yl)carbamate] | ≥ 10000 | > 100000 | 1.82 | does not | > 10 | >10 | did not display any differential growth inhibition | did not demonstrate any differential growth inhibition | > 10 | > 100 | 0.0185 µM and 0.14 µM | 0.0185 | 107 µM and > 100 µM | > 100 | did not demonstrate any differential growth inhibition | > 10 | metabolism of prodrug by UT-SCC-54C cells under anoxic conditions (release of 121) (UT-SCC-54C cells [4]; anoxic): selectively metabolised; metabolism of prodrug by UT-SCC-54C cells under oxic conditions (UT-SCC-54C cells [4]; oxic): not under oxic conditions; IC50 (human mTOR; read-out: Inhibition of kinase activity (as IC50) mTOR, 10 μM ATP, mean of two replicates, Table 12): > 100000 nM; D1 (radiation dose for 1% surviving fraction) (UT-SCC-54C cells [1]; 0% O2, compound conc 1 μM): 13.8 Gy; D10 (radiation dose for 10% surviving fraction) (UT-SCC-54C cells [1]; 0% O2, compound conc 1 μM): 8.57 Gy; SER1 (sensitiser enhancement ratio at 1% surviving fraction) (UT-SCC-54C cells [1]; 0% O2, compound conc 1 μM): 1.71; SER10 (sensitiser enhancement ratio at 10% surviving fraction) (UT-SCC-54C cells [1]; 0% O2, compound conc 1 μM): 1.73; Plating efficiency drug/no drug (UT-SCC-54C cells [1]; 0% O2, compound conc 1 μM): 1.13; D1 (radiation dose for 1% surviving fraction) (UT-SCC-54C cells [1]; 20% O2, compound conc 1 μM): 9.34 Gy; D10 (radiation dose for 10% surviving fraction) (UT-SCC-54C cells [1]; 20% O2, compound conc 1 μM): 5.61 Gy; SER1 (sensitiser enhancement ratio at 1% surviving fraction) (UT-SCC-54C cells [1]; 20% O2, compound conc 1 μM): 1.04; SER10 (sensitiser enhancement ratio at 10% surviving fraction) (UT-SCC-54C cells [1]; 20% O2, compound conc 1 μM): 1.12; Plating efficiency drug/no drug (UT-SCC-54C cells [1]; 20% O2, compound conc 1 μM): 1.21; reduction in clonogens/gram of tumour, compound with radiation compared to radiation alone ([5]; IP 50 mg/kg 15 min before and 6 h after 13 Gy whole-body irradiation): smaller, but significant (p=0.018) effect; reduction in clonogens/gram of tumour tissue, compound alone ([5]; IP 2 x 50 mg/kg, no radiation, compared to DMSO control): no reduction
